Results on nine compounds are retold here after US5196577A, “Compound marked with tritium, its preparation and its use in particular in the determination of the affinity of retinoids for their nuclear receptors and their cytosolic binding protein” (Centre International de Recherches Dermatologiques, priority 1988, dated 1993).

Entries after “also recorded” stand apart in the source; their conditions may differ. Like-named read-outs stand apart in the source and are kept apart here. Some results are limits rather than exact numbers.

Series [1] has as its target T1, CRABP (Rattus norvegicus, UniProt P62966).
T1 construct: rat testicle cytosol containing CRABP; from tissue
Briefly: Competition with the claimed marked compound for CRABP. Type of series: binding. The method, then:
These competition experiments are carried out in the following manner: a fixed quantity of radioactive ligand (corresponding substantially to the demi-saturation, in our case 4 nM) is mixed with increasing quantities of cold ligand (non-radioactive). Then the binding protein is added and the quantity of radioactive ligand fixed to the balance is determined (in % of the initial fixing in the absence of cold ligand, for the quantity of CRABP under consideration).
From the competition curves, the IC50 (concentration of cold ligand reducing the attachment of the tritiated ligand by 50%) is determined. This IC50 value enables the calculation in each case of the dissociation constant from the balance (Kd) for the cold ligand.

For series [2], the system named is retinoic acid nuclear receptors (RARs). Kind of series: Direct fixing of tritiated ligand on RARs of F9 cells (HPSEC of nucleosol). In kind it is binding, murine. Particulars: 200 nM tritiated ligand; for specific fixing on RARs in presence of excess cold homolog ligand: 100-fold excess (20000 nM) cold ligand, FIG. 1; for ligand fixed to the RARs per cell: FIG. 2. The method, then: (§1) Cultures of F9 cells of murin embryonic carcinoma (normally four 90 mm dishes containing in total 2-4×10^7 cells per incubation condition) were washed once with PBS (saline phosphate buffer) and incubated for 3 hours in a medium, without serum, supplemented with the marked retinoid in the absence or the presence of a cold retinoid homolog or heterolog (to verify the specificity and for comparison experiments). The cells were then detached with a trypsin EDTA mixture and numbered with a Burker hemocytometer. The nucleosol containing RARs was extracted from the purified nuclei using the method described by Daly and Redfern (1987) (that is, after treatment using DNAase and NaCl 0.6M), and analyzed using high performance exclusion chromatography (HPSEC). 50 μl of marked extract were injected on a 9×250 mm GF250 column (Dupont de Nemours). The elution was carried out in a buffer 0.3M KH2 PO4 pH 7.8 at a rate of 1 ml/min. The protein content was followed by measuring the optical density at 280 nm. 28 fractions of 0.3 ml each were collected and counted in Picofluor (Packard) scintillating agent. For each retinoid concentration, the number of bonded molecules was determined using the surface of the radioactivity peak and the calculated concentration of demi-saturation (C50). […] The dose-response curves and the competition curves were analyzed on a computer through non-linear regression using the various forms of the Clark equation.
When the above-describe method is used and the F9 cells are incubated with the compound of example 1 at a concentration of 200 nM, a single radioactivity peak is observed in the nuclear extract (FIG. 1B). The molecular weight corresponding to the average fraction of the peak is approximately 45 kDa, a number close to the molecular weight of human RARs, as has been calculated from the sequence of their DNAc (Petkovich et al, 1987; Brand et al, 1988), and is compatible with the 4S sedimentation coefficient of murin receptors (Daly & Redfer, 1987). The fixing is specific since it is abolished when the cells are coincubated with an excess of 100 times of the cold compound I (FIG. 1B). There is no CRABP in the nucleosoilc extract of F9, as already underlined by Daly and Redfern (1987).
It can be noted that the radioactive peak elutes at the same position as with the compound of example 1.
The two compounds were used at a concentration of 200 nM. The quantity of ligand bonded to the RARs is expressed in molecules per cell.
To determine the concentration of the compound of example 1 giving 50% saturation of the RARs (C50), a saturation curve has been traced expressing the surface of the radioactive peak as a function of varied concentrations of the compound of example 1. The C50 is between 0.5 and 2 nM.
For orientation: Size exclusion chromatography separates by hydrodynamic size, large species first.

Series [3] relates to F9 cells. Kind of series: Production of secreted plasminogen activator by differentiating F9 cells (biological activity, CPA50). Particulars: for EC50: Mus musculus, read-out: BIOLOGICAL ACTIVITY CPA50. In kind it is cell-based, murine. The source says:
The biological activity of the retinoids can be measured on the F9 cells by quantifying the production of the plasminogen activator secreted consecutively with the differentiation of said cells, caused by the retinoids. CPA50 is the concentration of retinoids causing an induction of 50% of the maximum of the secreted plasminogen activator. By comparing the IC50 and CPA50 values on Table 1, it can be noted that there is an excellent correlation between the affinity of the retinoids for the RARs and their biological activity (see also the straight regression line of FIG. 4). The only exception is retinoic acid itself. […] In effect, the IC50 measurement is carried out after an incubation of 3 hours, while the CPA50 measurement is carried out after a incubation of 3 days.

Series [4] has as its system retinoic acid nuclear receptors (RARs). Briefly: Competition with the tritiated compound of example 1 for RARs in F9 cells (HPSEC of nucleosol). Type of series: binding, murine. Particulars: for IC50: competition with 2 nM tritiated compound of example 1, incubation of 3 hours, read-out: AFFINITY RARs:IC50. How it is done:
as §1
In view of its stability and its excellent affinity for the RARs, the compound of example 1 in principle enables the determination by competition of the affinity of no matter which retinoid for the RARs.
The […] profiles are obtained after incubation of the F9 cells with 2×10^-9 M of the compound of example 1 in the absence (- ) or in the presence of 10^-9 M(.quadrature.-.quadrature.), 10^-8 M (- ), 10^-7 M (Δ-Δ), 10^-6 M (- ) of cold competitors. I=the unmarked compound of example 1. RA=retinoic acid. For each competition concentration, the peak surface is expressed as a percentage of the surface obtained with the compound of example 1 without competition.
By measuring the surface of the radioactive peak for each concentration of cold competition, it is possible to trace the competition sigmoids. Data processing of these curves enables the determination of the IC50 (50% inhibiting concentration) of each retinoid.

In series [5] the target is T1, CRABP. Kind of series: Direct fixing (saturation) of tritiated ligand on CRABP in rat testicle cytosol. Particulars: for non-specific fixing as part of total fixing on CRABP: 1 μM cold homolog ligand; for concentration of CRABP in rat testicle cytosol found with the marked retinoid: saturating concentration of marked retinoid. Type of series: binding. The method, then:
The difference (- ) represents the specific bond.
The total fixing (non-specific+specific (1-1) is obtained by incubation of increasing concentrations (up to a maximum of 125 nM) of the claimed compound with a constant quantity (0.3 ml) of a rat testicle homogenate (CRABP-rich organ). The non-specific fixing of the tritiated compound is determined in parallel, by measuring the fixing with increasing concentrations of the radioactive ligand in the presence of a large excess (1 μM) of cold homolog ligand (.quadrature.-.quadrature.). An incubation time of two hours is necessary for the establishment of balanced conditions.
Once the balance is achieved, the tritiated CRABP-ligand complex is separated from the non-bonded ligand by filtration on a Sephadex G25 exclusion gel column (BIO-Rad econo columns, 0.5× 20 cm): the complex is eluted (elution peak at 2.5 ml), while the non-bonded ligand is retained in totality on the column. […] The elution is done directly in scintillation tubes and the radioactivity is measured by counting.
The difference between the total fixing curve (- )and the non-specific fixing curve (.quadrature.-.quadrature.) gives the specific fixing curve ( - ). Analysis of this curve provides the dissociation constant with the balance (Kd), which is the concentration of product necessary to saturate 50% of the CRABP. This constant is a measurement of the affinity of the ligand for its binding protein, with the Kd being inversely proportional to the affinity (the lower the Kd, the greater the affinity).
The concentration of CRABP in the rat testicle cytosol used for the experiment can be determined in binding experiments where the marked retinoids are used at a saturating concentration.

The nature of series [6]: Stability of ligand (general statements). In kind it is physicochemical. Particulars: statement in words, no data.
For series [7] the following is noted: by radiolysis, oxidation and photolysis; background statement; cited from earlier work.
[8] abbreviates: Table 1, Kd calculated from competition IC50, radioligand about 4 nM, read-out: AFFINITY CRABP:Kd.
The mark [9] stands for this setting: 72 h, concentration causing induction of 50% of the maximum of secreted plasminogen activator, F9 cells, incubation of 3 days.

T1 sequence (P62966 whole entry): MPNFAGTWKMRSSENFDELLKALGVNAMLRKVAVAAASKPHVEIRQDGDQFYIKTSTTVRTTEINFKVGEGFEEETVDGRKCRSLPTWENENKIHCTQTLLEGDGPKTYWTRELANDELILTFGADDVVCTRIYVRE

Consider `CC1(C)CCC(C)(C)c2cc3cc(-c4ccc(C(=O)O)cc4)ccc3cc21` [Compound I, 4-(5,6,7,8-tetrahydro-5,5,8,8-tetramethyl-2-anthracenyl) benzoic acid], for which the Kd in series [1] (setting [8]) is 4 nM. The “specific fixing on RARs in presence of excess cold homolog ligand” value in series [2] is on record as “abolished”. For the same compound, the EC50 in series [3] (setting [9]) was determined as 1 nM. Moreover, in series [4] (F9 cells), the IC50 was found to be 0.8 nM. In series [4] (from IC50 of Table 1), the “affinity for the RARs relative to retinoic acid” value is “six times”.
`CC1(C)CCC(C)(C)c2cc(-c3cc4ccc(C(=O)O)cc4s3)ccc21` [Compound IV, 2(5,6,7,8-tetrahydro-5,5,8,8-tetramethyl-2-naphthyl)-6-benzo(b)thiophene carboxylic acid]: the Kd in series [1] amounted to 2 nM. Also, in series [3] (F9, 72 h), the EC50 turned out to be 53 nM. The IC50 in series [4] (F9 cells) was 77 nM.
With `CC1(C)CCC(C)(C)c2cc(-c3ccc4cc(C(=O)O)ccc4c3)ccc21` [Compound V, 6(5,6,7,8-tetrahydro-5,5,8,8-tetramethyl-2-naphthyl)-2-naphthoic acid], the Kd in series [1] (setting [8]) was 20 nM. Besides, in series [3] (setting [9]), the EC50 came out at 66 nM. Further, the half-maximal inhibitory concentration (IC50) in series [4] (F9 cells) turned out to be 12 nM.
Consider `CC1(C)CCC(C)(C)c2cc(-c3cc4ccc(C(=O)O)cc4o3)ccc21` [Compound VI, 2(5,6,7,8-tetrahydro-5,5,8,8-tetramethyl-2-naphthyl)-6 benzo(b)furan carboxylic acid], for which the Kd in series [1] was found to be 200 nM. Besides, in series [3] (F9, 72 h), the EC50 stood at 670 nM. Further, in series [4] (F9 cells), the concentration for half-maximal inhibition (IC50) amounted to 770 nM.
Regarding `CC1(C)CCC(C)(C)c2cc(C(=O)Nc3ccc(C(=O)O)cc3)ccc21` [Compound VII, 4(5,6,7,8-tetrahydro-5,5,8,8-tetramethyl-2-naphthamido) benzoic acid], in series [1] (setting [8]), the Kd is 200 nM. Moreover, the EC50 in series [3] (setting [9]) was found to be 85 nM. Also, in series [4] (F9 cells), the IC50 was determined as 76 nM.
`Cc1c(C(=O)O)cc(S)c2cc(-c3ccc4c(c3)C(C)(C)CCC4(C)C)ccc12` [Compound VIII, 1methyl-4-thiol-6-(5,6,7,8-tetrahydro-5,5,8,8-tetramethyl-2-naphthyl)-2-nphthoic acid]: binding in series [1] was characterised by a dissociation constant (Kd) of 200 nM. The “biological activity (in words)” value in series [3] (F9 cells, FIG. 4) is “biologically inactive; also recorded: below the threshold of detection”. The EC50 in series [3] (F9, 72 h) was greater than 10000 nM. In addition, in series [4] (F9 cells, FIG. 4), the “affinity for the RARs (in words)” value is listed as “below the threshold of detection”. In addition, the IC50 in series [4] (F9 cells) was greater than 10000 nM.
Turning to `CC1(C)CCC(C)(C)c2cc3cc(-c4ccc(C(=O)O)cc4)ccc3cc21` [Example 1, 4-(5,6,7,8-tetrahydro-5,5,8,8-tetramethyl-2-anthracenyl) benzoic acid marked with tritium], the “character of non-specific fixing on CRABP” value in series [5] (in the range of concentrations used, rat testicle) was “linear and non-saturable”. In addition, in series [5] (rat testicle), the “character of specific fixing on CRABP” value is “saturable and reversible”; the “non-specific fixing as part of total fixing on CRABP” value is “less than 10%”. Moreover, the “concentration of CRABP in rat testicle cytosol found with the marked retinoid” value in series [5] is 10-12 pmol/mg protein. In addition, in series [6], the “stability of the ligand” value is reported as “very stable”. Moreover, the “ligand fixed to the RARs per cell” value in series [2] is recorded as “approximately 4,000 molecules per cell”.
Turning to `CC1=C(/C=C/C(C)=C/C=C/C(C)=C/C(=O)O)C(C)(C)CCC1` [Retinoic acid], in series [5] (rat testicle), the “non-specific fixing as part of total fixing on CRABP” value was “approximately 25%”. Further, the “concentration of CRABP in rat testicle cytosol found with the marked retinoid” value in series [5] is 10-12 pmol/mg protein. Besides, the “degradation of retinoic acid” value in series [7] is on record as “rapidly degraded”. Further, in series [6], the “stability of the ligand” value is listed as “high instability”. Also, in series [2], the “specific fixing on RARs in presence of excess cold homolog ligand” value is reported as “the peak is not observed” and the “ligand fixed to the RARs per cell” value is listed as “approximately 4,000 molecules per cell”. Moreover, the EC50 in series [3] (F9, 72 h) worked out at 350 nM. The IC50 in series [4] (F9 cells) was found to be 5 nM.
As to `CC1=C(/C=C/C(C)=C/C=C/C(C)=C/CO)C(C)(C)CCC1` [Retinol], the dissociation constant Kd in series [1] (setting [8]) is 600 nM. Besides, the EC50 in series [3] (setting [9]) is 2500 nM. For the same compound, the IC50 in series [4] (F9 cells) was found to be 1400 nM.

Broadly, the Kd is the free concentration of one partner at which half of the binding sites on the other are occupied at equilibrium, for simple one-to-one binding. The term IC50 denotes the midpoint of a concentration-inhibition curve.
